# From ChEMBL document CHEMBL5634158, “From garden to lab: C-3 chemical modifications of tomatidine unveil broad-spectrum ATP synthase inhibitors to combat bacterial resistance” (Eur J Med Chem, 2023)
# Columns and labels:
# [1] = tested on: Escherichia coli; experiment: Antibacterial activity against Escherichia coli ATCC 25922 assessed as reduction in microbial growth incubated for 20 hrs under aerobic condition by CLSI based broth microdilution method; format: functional
# [2] = tested on: Staphylococcus aureus; experiment: Antibacterial activity against Staphylococcus aureus ATCC 29213 assessed as reduction in microbial growth incubated for 20 hrs under aerobic condition by CLSI based broth microdilution method; format: functional
# [3] = tested on: Staphylococcus aureus; experiment: Antibacterial activity against Staphylococcus aureus ATCC 29213 hemB SCV assessed as reduction in microbial growth incubated for 20 hrs under aerobic condition by CLSI based broth microdilution method; format: functional
# [4] = tested on: Escherichia coli; experiment: Antibacterial activity against Escherichia coli MC4100 assessed as reduction in bacterial growth by CLSI based broth microdilution method; format: functional
# [5] = tested on: Escherichia coli; experiment: Antibacterial activity against Escherichia coli MC4100 harbouring acrAB mutant assessed as reduction in bacterial growth by CLSI based broth microdilution method; format: functional
# [6] = tested on: Escherichia coli; experiment: Antibacterial activity against Escherichia coli MC4100 harbouring lptD mutant assessed as reduction in bacterial growth by CLSI based broth microdilution method; format: functional
# [7] = tested on: Escherichia coli; experiment: Antibacterial activity against Escherichia coli producing extended spectrum beta-lactamase CTX-M-15 assessed as reduction in microbial growth incubated for 20 hrs under aerobic condition by CLSI based broth microdilution method; format: functional
# [8] = Inhibition of Escherichia coli ATCC 25922 ATP synthase activity preincubated for 30 mins followed by NADH/ADP addition and measured after 60 mins by luciferin/luciferase luminescence assay
# [9] = Inhibition of Staphylococcus aureus ATCC 29213 ATP synthase activity preincubated for 30 mins followed by NADH/ADP addition and measured after 60 mins by luciferin/luciferase luminescence assay
# [10] = Inhibition of mitochondrial ATP synthase in human HepG2 cells preincubated for 30 mins followed by NADH/ADP addition and measured after 60 mins by luminescence assay; format: cell-based
# [11] = tested on: Staphylococcus aureus; experiment: Antibacterial activity against methicillin resistant Staphylococcus aureus ATCC BAA-41/USA-100 assessed as reduction in microbial growth incubated for 20 hrs under aerobic condition by CLSI based broth microdilution method; format: functional
# [12] = tested on: Staphylococcus aureus; experiment: Antibacterial activity against methicillin resistant Staphylococcus aureus ATCC 700699/Mu50 assessed as reduction in microbial growth incubated for 20 hrs under aerobic condition by CLSI based broth microdilution method; format: functional
# [13] = tested on: Escherichia coli; experiment: Antibacterial activity against NDM1-producing carbapenem-resistant Escherichia coli ATCC BAA-2471 assessed as reduction in microbial growth incubated for 20 hrs under aerobic condition by CLSI based broth microdilution method; format: functional
# [14] = tested on: Escherichia coli; experiment: Antibacterial activity against Escherichia coli producing extended spectrum beta-lactamase KPC assessed as reduction in microbial growth incubated for 20 hrs under aerobic condition by CLSI based broth microdilution method; format: functional
# [15] = tested on: Escherichia coli; experiment: Antibacterial activity against colistin resistant Escherichia coli harboring mcr-1 gene assessed as reduction in microbial growth incubated for 20 hrs under aerobic condition by CLSI based broth microdilution method; format: functional
# [16] = tested on: Escherichia coli; experiment: Antibacterial activity against antibiotic susceptible Escherichia coli ATCC 25922 assessed as reduction in microbial growth incubated for 20 hrs under aerobic condition by CLSI based broth microdilution method; format: functional
# [17] = tested on: Escherichia coli; experiment: Antibacterial activity against NDM1-producing carbapenem/antibiotic resistant Escherichia coli ATCC BAA-2471 assessed as reduction in microbial growth incubated for 20 hrs under aerobic condition by CLSI based broth microdilution method; format: functional
# [18] = tested on: Escherichia coli; experiment: Antibacterial activity against antibiotic resistant Escherichia coli producing extended spectrum beta-lactamase CTX-M-15 assessed as reduction in microbial growth incubated for 20 hrs under aerobic condition by CLSI based broth microdilution method; format: functional
# [19] = tested on: Escherichia coli; experiment: Antibacterial activity against antibiotic susceptible Escherichia coli producing extended spectrum beta-lactamase CTX-M-15 assessed as reduction in microbial growth incubated for 20 hrs under aerobic condition by CLSI based broth microdilution method; format: functional
# [20] = tested on: Escherichia coli; experiment: Antibacterial activity against antibiotic susceptible /colistin resistant Escherichia coli harboring mcr-1 gene assessed as reduction in microbial growth incubated for 20 hrs under aerobic condition by CLSI based broth microdilution method; format: functional
# [21] = tested on: Escherichia coli; experiment: microbe, parasite or virus in culture; settings: 20 h
# Description: Antibacterial activity against antibiotic resistant Escherichia coli producing extended spectrum beta-lactamase KPC assessed as reduction in microbial growth incubated for 20 hrs under aerobic condition by CLSI based broth microdilution method
# [22] = tested on: Staphylococcus aureus; experiment: Antibacterial activity against antibiotic susceptible Staphylococcus aureus ATCC 29213 assessed as reduction in microbial growth incubated for 20 hrs under aerobic condition by CLSI based broth microdilution method; format: functional
# [23] = tested on: Staphylococcus aureus; experiment: Antibacterial activity against antibiotic susceptible Staphylococcus aureus ATCC 29213 hemB SCV assessed as reduction in microbial growth incubated for 20 hrs under aerobic condition by CLSI based broth microdilution method; format: functional
# [24] = tested on: Staphylococcus aureus; experiment: Antibacterial activity against antibiotic resistant methicillin resistant Staphylococcus aureus ATCC BAA-41/USA-100 assessed as reduction in microbial growth incubated for 20 hrs under aerobic condition by CLSI based broth microdilution method; format: functional
# [25] = tested on: Staphylococcus aureus; experiment: Antibacterial activity against antibiotic resitant/methicillin resistant Staphylococcus aureus ATCC 700699/Mu50 assessed as reduction in microbial growth incubated for 20 hrs under aerobic condition by CLSI based broth microdilution method; format: functional
# [26] = tested on: Staphylococcus aureus; experiment: Antibacterial activity against antibiotic resistant Staphylococcus aureus ATCC 29213 hemB SCV assessed as reduction in microbial growth incubated for 20 hrs under aerobic condition by CLSI based broth microdilution method; format: functional
# [27] = tested on: Escherichia coli; experiment: Antibacterial activity against antibiotic susceptible Escherichia coli producing extended spectrum beta-lactamase KPC assessed as reduction in microbial growth incubated for 20 hrs under aerobic condition by CLSI based broth microdilution method; format: functional
# [28] = tested on: Escherichia coli; experiment: Antibacterial activity against antibiotic/colistin resistant Escherichia coli harboring mcr-1 gene assessed as reduction in microbial growth incubated for 20 hrs under aerobic condition by CLSI based broth microdilution method; format: functional
# [29] = tested on: Staphylococcus aureus; experiment: Antibacterial activity against Staphylococcus aureus ATCC 29213 SCV assessed as reduction in microbial growth by CLSI based broth microdilution method; format: functional
# [30] = tested on: Staphylococcus aureus; experiment: Antibacterial activity against wild type Staphylococcus aureus ATCC 29213 assessed as reduction in microbial growth by CLSI based broth microdilution method; format: functional
# [31] = tested on: Staphylococcus aureus; experiment: microbe, parasite or virus in culture; settings: ATCC 700699/Mu50, 20 h
# Description: Antibacterial activity against antibiotic intermediately resitant/methicillin resistant Staphylococcus aureus ATCC 700699/Mu50 assessed as reduction in microbial growth incubated for 20 hrs under aerobic condition by CLSI based broth microdilution method
# [32] = tested on: Escherichia coli; experiment: Antibacterial activity against NDM1-producing carbapenem resistant/antibiotic susceptible Escherichia coli ATCC BAA-2471 assessed as reduction in microbial growth incubated for 20 hrs under aerobic condition by CLSI based broth microdilution method; format: functional, organism-based
molecule,measurement,setting,value
C[C@H]1CC[C@]2(NC1)O[C@H]1C[C@H]3[C@@H]4CC[C@H]5CC(NC[C@@H](N)Cc6ccc(Cl)c(Cl)c6)CC[C@]5(C)[C@H]4CC[C@]3(C)[C@H]1[C@@H]2C (mixture of isomers),MIC,[1],4 µg/mL
same,MIC,[2],1 µg/mL
same,MIC,[3],0.5 µg/mL
same,MIC,[4],8 µg/mL
same,MIC,[5],4 µg/mL
same,MIC,[6],2 µg/mL
same,MIC,[7],4 µg/mL
same,IC50,[8],1.95 µM
same,IC50,[9],0.83 µM
same,IC50,[10],13.9 µM
same,MIC,[11],2 µg/mL
same,MIC,[12],1 µg/mL
same,MIC,[13],8 µg/mL
same,MIC,[14],8 µg/mL
same,MIC,[15],8 µg/mL
C[C@H]1CC[C@]2(NC1)O[C@H]1C[C@H]3[C@@H]4CC[C@H]5CC(NC[C@@H](N)Cc6ccc7ccccc7c6)CC[C@]5(C)[C@H]4CC[C@]3(C)[C@H]1[C@@H]2C (mixture of isomers),MIC,[1],8 µg/mL
same,MIC,[2],1 µg/mL
same,MIC,[4],16 µg/mL
same,MIC,[5],4 µg/mL
same,MIC,[6],8 µg/mL
same,IC50,[8],2 µM
CC(C)(O/N=C(\C(=O)N[C@@H]1C(=O)N2C(C(=O)[O-])=C(C[n+]3ccccc3)CS[C@H]12)c1csc(N)n1)C(=O)O [CEFTAZIDIME],MIC,[16],0.25 µg/mL
same,MIC,[17],> 32 µg/mL
same,MIC,[18],> 32 µg/mL
same,MIC,[19],1 µg/mL
same,MIC,[20],0.25 µg/mL
same,MIC,[21],> 32 µg/mL
C[C@@H](O)[C@H]1C(=O)N2C(C(=O)O)=C(S[C@@H]3CN[C@H](C(=O)N(C)C)C3)[C@H](C)[C@H]12 [MEROPENEM],MIC,[22],0.12 µg/mL
same,MIC,[23],0.06 µg/mL
same,MIC,[24],> 16 µg/mL
same,MIC,[25],> 16 µg/mL
same,MIC,[16],≤ 0.03 µg/mL
same,MIC,[17],> 16 µg/mL
same,MIC,[20],≤ 0.03 µg/mL
same,MIC,[21],8 µg/mL
Cc1onc(-c2ccccc2)c1C(=O)N[C@@H]1C(=O)N2[C@@H]1SC(C)(C)[C@@H]2C(=O)O [OXACILLIN],MIC,[22],0.24 µg/mL
same,MIC,[23],0.12 µg/mL
same,MIC,[24],> 128 µg/mL
same,MIC,[25],> 128 µg/mL
NC[C@H]1O[C@H](O[C@H]2[C@H](O)[C@@H](O[C@H]3O[C@H](CO)[C@@H](O)[C@H](N)[C@H]3O)[C@H](N)C[C@@H]2N)[C@H](N)C[C@@H]1O [TOBRAMYCIN],MIC,[22],0.5 µg/mL
same,MIC,[26],16 µg/mL
same,MIC,[24],> 64 µg/mL
same,MIC,[25],> 64 µg/mL
same,MIC,[16],0.24 µg/mL
same,MIC,[17],64 µg/mL
same,MIC,[18],64 µg/mL
same,MIC,[19],≤ 0.03 µg/mL
same,MIC,[27],0.5 µg/mL
same,MIC,[28],32 µg/mL
C[C@H]1CC[C@]2(NC1)O[C@H]1C[C@H]3[C@@H]4CC[C@H]5C[C@@H](O)CC[C@]5(C)[C@H]4CC[C@]3(C)[C@H]1[C@@H]2C [TOMATIDINE],MIC,[1],> 128 µg/mL
same,MIC,[2],> 64 µg/mL
same,MIC,[3],0.06 µg/mL
same,MIC,[29],0.06 µg/mL
same,MIC,[30],> 64 µg/mL
CN[C@H](CC(C)C)C(=O)N[C@H]1C(=O)N[C@@H](CC(N)=O)C(=O)N[C@H]2C(=O)N[C@H]3C(=O)N[C@H](C(=O)N[C@H](C(=O)O)c4cc(O)cc(O)c4-c4cc3ccc4O)[C@H](O)c3ccc(c(Cl)c3)Oc3cc2cc(c3O[C@@H]2O[C@H](CO)[C@@H](O)[C@H](O)[C@H]2O[C@H]2C[C@](C)(N)[C@H](O)[C@H](C)O2)Oc2ccc(cc2Cl)[C@H]1O [VANCOMYCIN],MIC,[31],8 µg/mL
COLISTIN,MIC,[16],1 µg/mL
same,MIC,[32],1 µg/mL
same,MIC,[27],0.5 µg/mL
same,MIC,[28],32 µg/mL
